Assay results as given in patent publication EP4806435A1, “DIHYDROCHROMENE-DERIVATIVE-CONTAINING THERAPEUTIC AGENT FOR CANCER” (Sumitomo Pharma Co., Ltd., priority 2023, dated 2025).

Test system: B16 cells
Test: In vivo efficacy, combination with ipilimumab, B16 tumors
Design: species or system C57BL/6J mice
Settings: Compound 1 3 mg/kg or 10 mg/kg once daily + ipilimumab 5 mg/kg once weekly; B16, subcutaneous
Method: B16 cells (3 x 10^5) were subcutaneously implanted into C57BL/6J mice (n = 6) to establish tumors. On day 12 after implantation, administration was initiated with Compound 1 at 3 mg/kg or 10 mg/kg (once daily) and ipilimumab (an anti-CTLA-4 antibody) at 5 mg/kg (once weekly), and the efficacy of each monotherapy and the combination therapy was compared.
Tumor volume was calculated using the following formula based on the short and long diameters of the tumor measured with digital calipers (Mitutoyo). [formula]
The antitumor effect was evaluated by comparing the vehicle-treated control group with the test substance-treated group, and calculating T/C using the following formula. [formula]

Structure (SMILES): CC1(C)Oc2cc(Cl)ccc2[C@@H]2OCC3(CCN(CCn4ccnc4)CC3)C[C@H]21 [Compound 1, (4'aR,10'bR)-8'-chloro-1-[2-(1H-imidazol-1-yl)ethyl]-5',5'-dimethyl-4'a,10'b-dihydro-2'H,4'H,5'H-spiro[piperidine-4,3'-pyrano[3,2-c][1]benzopyran] diphosphate]
- antitumor effect in combination with ipilimumab: remarkably pronounced antitumor effect
